Patent US9708639B2, “Method for quantifying amino acids with pyrophosphate” (TOYAMA PREFECTURE, priority 2012, dated 2017)

Columns and labels:
Experiment in all cases: Calibration curve for amino acid by coupled PPDK and LDH
Format in all cases: biochemical, Thermotoga maritima MSB8 strain
Thermotoga-derived LysRS = molecular target: T1, Thermotoga-derived LysRS (Thermotoga maritima, UniProt Q9X231); details: Lys 0 to 200 μM; hydroxylamine 1000 mM; LysRS 0.1 mg/ml (10 mU/ml); 30° C.
T1 construct: His tag (C); made in house; host or cells: Escherichia coli BL21 (DE3)
T1 sequence (Q9X231 1-502): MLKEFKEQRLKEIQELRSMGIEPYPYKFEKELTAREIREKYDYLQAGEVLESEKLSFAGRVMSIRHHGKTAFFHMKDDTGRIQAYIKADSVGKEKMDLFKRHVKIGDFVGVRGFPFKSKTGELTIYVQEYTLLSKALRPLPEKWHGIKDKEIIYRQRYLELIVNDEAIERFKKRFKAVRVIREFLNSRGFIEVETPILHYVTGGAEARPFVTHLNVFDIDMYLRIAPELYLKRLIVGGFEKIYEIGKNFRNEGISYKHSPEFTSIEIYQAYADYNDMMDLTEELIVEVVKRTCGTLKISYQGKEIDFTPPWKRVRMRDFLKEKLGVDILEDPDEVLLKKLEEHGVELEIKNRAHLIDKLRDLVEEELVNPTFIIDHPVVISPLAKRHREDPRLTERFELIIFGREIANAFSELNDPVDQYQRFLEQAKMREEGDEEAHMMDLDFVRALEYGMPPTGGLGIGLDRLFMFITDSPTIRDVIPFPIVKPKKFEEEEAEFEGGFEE
Experimental: (§1) A test sample containing an amino acid as the measurement subject and a reaction mixture for quantifying amino acid having the following composition were mixed. The mixture was left standing at 30° C. to allow the AARS, PPDK, and LDH reactions to advance, and decrease of the absorbance at 340 nm was measured. The volume of the mixture was 200 μl, and after the reaction mixture was put into the wells of a 96-well microplate, the absorbance was measured with a microplate reader.
(§2) Reaction mixture for quantifying amino acid: 20 mM Tris-HCl (pH 7.0), 10 mM MgCl2, 10 mM NH4Cl, 0.3 mM PEP, 0.3 mM NADH, 0.2 mM ATP, 0.2 mM AMP, 70 mU/ml PPDK, 50 U/ml LDH, and AARS (concentrations are final concentrations obtained after mixing with test sample)
(§3) Calibration curves were prepared by using the AARS activity measurement method described in 8. and standard Cys, Lys, Ser, and Tyr solutions as test samples. The concentrations of the aforementioned amino acids were set so that the final concentrations thereof are in the range of 0 to 200 μM. The hydroxylamine concentration was 200 mM for the samples used for the Tyr calibration curve, or 1000 mM for the samples used for the Cys, Lys, and Ser calibration curves. The Thermotoga-derived CysRS, LysRS, SerRS, TyrRS, and the Thermus-derived TyrRS were added to the reaction mixture at final concentrations of 0.2 (7 mU/ml), 0.1 (10 mU/ml), 0.2 (8 mU/ml), 0.4 (40 mU/ml), and 0.1 mg/ml, respectively.
(§4) Calibration curves could be similarly prepared when adding pyrophosphate instead of the aforementioned amino acids, but the inclinations of the Lys, Ser, and Tyr calibration curves (absorbance change per mM of substrate) were 80% or more of the inclination of the pyrophosphate calibration curve. […] The inclination of the Cys calibration curve was slightly smaller than those of the other calibration curves, and it is considered that this is because a part of cysteine in the test sample was converted into cystine by air oxidation, and the real concentration of cysteine was reduced.

Thermotoga-derived SerRS = molecular target: T2, Thermotoga-derived SerRS (Thermotoga maritima, UniProt Q9X199); details: Ser 0 to 200 μM; hydroxylamine 1000 mM; SerRS 0.2 mg/ml (8 mU/ml); 30° C.
T2 construct: His tag (C); made in house; host or cells: Escherichia coli BL21 (DE3)
Experimental: as §1, §2, §3, §4

Thermotoga-derived TyrRS = molecular target: T3, Thermotoga-derived TyrRS (Thermotoga maritima, UniProt Q9WYU8); details: Tyr 0 to 200 μM; hydroxylamine 200 mM; TyrRS 0.4 mg/ml (40 mU/ml); 30° C.
T3 construct: The amplification products were each inserted into pET-28a to obtain plasmids for expression of respective AARSs; His tag (N); made in house; host or cells: Escherichia coli BL21 (DE3)
T3 sequence (Q9WYU8 1-401): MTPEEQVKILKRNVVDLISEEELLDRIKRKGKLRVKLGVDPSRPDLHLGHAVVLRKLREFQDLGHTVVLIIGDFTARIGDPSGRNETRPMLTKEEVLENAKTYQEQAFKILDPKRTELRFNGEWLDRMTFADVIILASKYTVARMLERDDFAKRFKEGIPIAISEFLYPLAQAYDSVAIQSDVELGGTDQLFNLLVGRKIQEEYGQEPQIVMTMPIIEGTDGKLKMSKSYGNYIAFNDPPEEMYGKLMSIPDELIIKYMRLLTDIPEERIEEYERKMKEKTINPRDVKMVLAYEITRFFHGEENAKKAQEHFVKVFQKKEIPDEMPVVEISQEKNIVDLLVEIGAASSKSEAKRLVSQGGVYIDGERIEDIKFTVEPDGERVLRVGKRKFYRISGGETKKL
Experimental: as §1, §2, §3, §4

T2 sequence (Q9X199 whole entry): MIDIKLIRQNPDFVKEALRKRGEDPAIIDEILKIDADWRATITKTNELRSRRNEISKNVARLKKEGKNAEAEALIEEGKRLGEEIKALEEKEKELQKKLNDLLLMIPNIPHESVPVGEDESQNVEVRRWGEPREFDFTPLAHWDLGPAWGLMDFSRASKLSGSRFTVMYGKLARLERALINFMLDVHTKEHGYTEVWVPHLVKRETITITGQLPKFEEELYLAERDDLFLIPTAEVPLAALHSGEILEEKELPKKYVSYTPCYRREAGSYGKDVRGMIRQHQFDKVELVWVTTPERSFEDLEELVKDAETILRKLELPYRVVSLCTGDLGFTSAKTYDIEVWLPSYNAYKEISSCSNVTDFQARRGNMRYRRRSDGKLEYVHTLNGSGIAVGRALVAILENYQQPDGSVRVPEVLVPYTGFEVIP

## NCCCC[C@H](N)C(=O)O [Lys, L-lysine]
Thermotoga-derived LysRS
  inclination of calibration curve relative to inclination of the pyrophosphate calibration curve: ≥ 80%

## N[C@@H](CO)C(=O)O [Ser, L-serine]
Thermotoga-derived SerRS
  inclination of calibration curve relative to inclination of the pyrophosphate calibration curve: ≥ 80%

## N[C@@H](Cc1ccc(O)cc1)C(=O)O [Tyr, L-tyrosine]
Thermotoga-derived TyrRS
  inclination of calibration curve relative to inclination of the pyrophosphate calibration curve: ≥ 80%
